In ChEMBL document CHEMBL4138146, “A Schmidt rearrangement-mediated synthesis of novel tetrahydro-benzo[1,4]diazepin-5-ones as potential anticancer and antiprotozoal agents” (Eur J Med Chem, 2017):
≈ marks a conversion by molar mass, not a printed value.

Tests used:
[1] = tested on: U-937; experiment: Cytotoxicity against human U937 cells after 72 hrs by MTT assay; type: functional; conditions: U-937, 72 h, read-out: LC50 (the source's name)
[2] = tested on: Plasmodium falciparum; experiment: Antimalarial activity against chloroquine-sensitive Plasmodium falciparum 3D7 incubated for 48 hrs by malstat reagent based LDH release assay; type: functional, organism-based; conditions: 3D7, 48 h
[3] = tested on: Trypanosoma cruzi; experiment: Antitrypanosomal activity against Trypanosoma cruzi Tulahuen amastigote forms infected in human U937 cells after 72 hrs by beta-galactosidase reporter gene assay; type: functional, organism-based; conditions: U-937, 72 h
[4] = tested on: Leishmania panamensis; experiment: Antileishmanial activity against EpiR/GFP fused Leishmania panamensis MHOM/CO/87/UA140 intracellular amastigotes infected in human […] cells after 72 hrs by flow cytometric method; type: functional, organism-based; conditions: MHOM/CO/87/UA140, 72 h

SMILES	CC50 [1] [µg/mL]	EC50 [2] [µg/mL]	EC50 [3] [µg/mL]	EC50 [4] [µg/mL]
O=C(Cn1ccnc1[N+](=O)[O-])NCc1ccccc1 [BENZNIDAZOLE]	180 (≈ 692 µM)			
C[C@@H]1[C@H](O)[C@@H](C)/C=C/C=C/C=C/C=C/C=C/C=C/C=C/[C@H](O[C@@H]2O[C@H](C)[C@@H](O)[C@H](N)[C@@H]2O)C[C@@H]2O[C@](O)(C[C@@H](O)C[C@@H](O)[C@H](O)CC[C@@H](O)C[C@@H](O)CC(=O)O[C@H]1C)C[C@H](O)[C@H]2C(=O)O [AMPHOTERICIN B]	36 (≈ 39 µM)			
O=C1NCC(c2cc3cc(Cl)ccc3[nH]c2=O)Nc2ccccc21 (configuration not stated)	192 (≈ 566 µM)	43.2 (≈ 127 µM)	123 (≈ 361 µM)	19.4 (≈ 57.2 µM)
O=C1NCC(c2cc3cc(Br)ccc3[nH]c2=O)Nc2ccccc21 (configuration not stated)	57 (≈ 148 µM)	13.6 (≈ 35.4 µM)		15.3 (≈ 39.7 µM)
CCCCOc1nc2ccc(Br)cc2cc1C1CNC(=O)c2ccccc2N1 (configuration not stated)	> 200	50.8 (≈ 115 µM)		34.2 (≈ 77.6 µM)
